Experimental data: patent US11318157B2, “6-6 bicyclic aromatic ring substituted nucleoside analogues for use as PRMT5 inhibitors” (Janssen Pharmaceutica NV, priority 2015, dated 2022)

Key:
[1] = target: T1, PRMT5-MEP50 enzyme (Homo sapiens, UniProt O14744); experiment: In vitro assay 1a: high throughput mass spectrometer assay of SAH formation, 10 nM enzyme, 60 min; type: biochemical; details: averaged values, PRMT5-MEP50, 10 nM enzyme, read-out: pIC50 Assay 1a (converted)
T1 construct: One virus expresses full length human PRMT5 with Flag-tag at N-terminus; Flag (N); purchased Charles River (Argenta); host or cells: insect cells (Sf9), baculovirus co-infection
Description: Experimental Procedures In Vitro Assay (Assay 1a and 1b)
PRMT5-MEP50 enzyme was purchased from Charles River (Argenta). The enzyme complex was produced in insect cells (Sf9) infected simultaneously with two baculoviruses. One virus expresses full length human PRMT5 with Flag-tag at N-terminus, the second virus expresses full length MEP50 with His6-TEV cleavage at N-terminus. The protein was affinity purified using anti-Flag (M2) beads eluted with 3×FLAG peptide, followed by His-Select eluted with 0.5M imidazole. Eluted protein was then dialysed against tris-buffered saline (TBS) (pH 8.0) containing 20% glycerol and 3 mM dithiothreitol (DTT).
Full-length untagged human recombinant histone H2A (residues 1-130, Genbank Accession #NM_021052 MW=14.1 kDa) expressed in E. coli was purchased from Reaction Biology Corporation, Cat #HMT-11-146. Reagents used for making reaction buffer or stopping reaction were purchased including Tris base (Sigma Cat #T-1503), NaCl (Sigma Cat #RGF-3270), MgCl2 (Sigma Cat #M0250), DTTI (Invitrogen Cat #15508-013) and Formic Acid (Riedel deHaen, Cat #33015)
High Throughput Mass Spectrometer Assay
PRMT5 catalyzes the sequential methylations of the terminal nitrogen atoms on the guanidine groups of arginine residues within proteins using co-substrate S-adenosyl-L-methionine (AdoMet, SAM), forming mono-methyl (MMA), symmetric-dimethyl arginine (sDMA) and S-adenosyl-L-homocysteine (AdoHcy, SAH). The enzyme activity was determined by following the product SAH formation using high throughput mass spectrometry (Agilent Rapidfire 300 System coupled to a Sciex 4000 series QTrap® triple-quad MS/MS). The reaction buffer was 20 mM Tris-HCl, pH 8.5, 50 mM NaCl, 5 mM MgCl2 and 1 mM DTT. The reaction activity was stopped using 1% formic acid (final concentration).
The IC50 Studies were performed using eleven point dosing series made for each compound by serially diluted 1:2 in dimethyl sulfoxide (DMSO), with point 12 being a DMSO control. Compounds were first spotted to plates, and followed by addition of 2 μM SAM and 0.6 μM H2A (histone H2A) solution mixture. The same volume of enzyme solution was added to initiate the enzymatic reactions. The final concentrations of the reaction are at 1 μM SAM, 0.3 μM H2A and 10 nM enzyme (assay 1a) or 1.25 nM enzyme (assay 1b). The reaction was incubated at 30° C. for 60 minutes (min) when 10 nM enzyme was used and for 120 min when 1.25 nM enzyme was used. Subsequently, the reaction was quenched by addition of formic acid to a final concentration of 1%. The inhibitions of SAH formation in the presence of compounds were calculated as a percentage of the control relative to the uninhibited reaction as a function of inhibitor concentration. The data were fit as follows: Y=Bottom+(Top−Bottom)/(1+10^((log IC50−X)*h))
where IC50 is the inhibitor concentration (same unit as X) at 50% inhibition and h is the Hill slope. Y is percent of inhibition, X is log of compound concentration. Bottom and Top are the plateaus in same units as Y.

[2] = target: T1, PRMT5-MEP50 enzyme; experiment: In vitro assay 1b: high throughput mass spectrometer assay of SAH formation, 1.25 nM enzyme, 120 min; type: biochemical; details: averaged values; PRMT5-MEP50, 1.25 nM enzyme, 120 min; read-out: pIC50 Assay 1b (converted)
How it was run: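 SAH product measured by RapidFire mass spectrometry after formic acid stop; IC50 from 11-point 1:2 dilutions, four-parameter fit. Reactions at 30 °C in 20 mM Tris pH 8.5 with 1 μM SAM, 0.3 μM H2A: assay 1a 10 nM PRMT5-MEP50, 60 min; assay 1b 1.25 nM, 120 min.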

[3] = system: nuclear symmetric Arginine dimethylation in A549 cells; experiment: PD assay (assay 2): inhibition of nuclear symmetric Arginine dimethylation (SYM10 immunohistochemistry), 48 h; type: cell-based; details: PD assay, A549 cells, symmetric Arginine dimethylation; for IC50: Homo sapiens, A549, averaged values, read-out: pIC50 Assay 2 (converted)
How it was run: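 Cells seeded at 400/well overnight, then treated 48 h at 37 °C, final DMSO 0.2%. Fixed and stained with SYM10 antibody plus Alexa 488 secondary, Hoechst and CellMask, then imaged on Opera. Normalized to DMSO (high) and 10 μM reference compound (low); averaged pIC50 reported.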

T1 sequence (O14744 whole entry): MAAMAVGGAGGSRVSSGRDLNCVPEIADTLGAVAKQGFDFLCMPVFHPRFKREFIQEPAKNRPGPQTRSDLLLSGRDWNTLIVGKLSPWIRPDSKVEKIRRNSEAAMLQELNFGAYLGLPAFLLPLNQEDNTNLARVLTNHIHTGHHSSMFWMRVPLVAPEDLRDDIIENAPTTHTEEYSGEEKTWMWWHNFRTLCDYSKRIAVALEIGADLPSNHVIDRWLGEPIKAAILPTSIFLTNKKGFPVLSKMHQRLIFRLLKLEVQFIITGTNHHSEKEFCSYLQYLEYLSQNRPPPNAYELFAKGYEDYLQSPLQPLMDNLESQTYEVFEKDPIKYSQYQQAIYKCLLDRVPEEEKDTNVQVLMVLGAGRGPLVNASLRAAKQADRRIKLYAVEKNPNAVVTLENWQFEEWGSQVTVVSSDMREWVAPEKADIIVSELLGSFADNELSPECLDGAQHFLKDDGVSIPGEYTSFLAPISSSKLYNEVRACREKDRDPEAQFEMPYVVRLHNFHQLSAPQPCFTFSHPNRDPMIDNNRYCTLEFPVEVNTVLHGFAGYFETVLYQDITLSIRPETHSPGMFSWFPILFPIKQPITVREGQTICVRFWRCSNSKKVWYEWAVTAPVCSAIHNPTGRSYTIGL
T1 sequence (Q9BQA1 whole entry partner): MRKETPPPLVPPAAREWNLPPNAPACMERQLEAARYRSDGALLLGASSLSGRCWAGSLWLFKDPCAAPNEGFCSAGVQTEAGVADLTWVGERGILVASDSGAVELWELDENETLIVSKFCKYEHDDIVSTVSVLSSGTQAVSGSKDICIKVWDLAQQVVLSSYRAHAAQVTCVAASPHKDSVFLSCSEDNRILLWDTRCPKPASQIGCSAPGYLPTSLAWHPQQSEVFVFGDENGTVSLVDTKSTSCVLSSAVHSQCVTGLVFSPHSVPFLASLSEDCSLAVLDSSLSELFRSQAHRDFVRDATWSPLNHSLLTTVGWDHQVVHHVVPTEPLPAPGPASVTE

SMILES | IC50 [1] [nM] | IC50 [2] [nM] | IC50 [3] [nM] | pIC50 Assay 2 ([3]; averaged values)
O[C@@H]1[C@H](O)[C@@H](COc2ccc3ccc(NCC4CC4)nc3c2)O[C@H]1n1ccc2c(Cl)ncnc21 [Compound 140] | 6.31 | 50.1 | 794 | 
COc1ncnc2c1ccn2[C@@H]1O[C@H](COc2ccc3cc(Br)cnc3c2)[C@@H](O)[C@H]1O [Compound 71] | 3160 | 2000 | 10000 | 
COc1ccnc2cc(OC[C@H]3O[C@@H](n4ccc5c(N)ncnc54)[C@H](O)[C@@H]3O)ccc12 [Compound 104] | 5010 | 15800 | > 10000 | 
Nc1ncnc2c1ncn2[C@@H]1O[C@H](COc2cc3ncc(Br)cc3cc2Cl)[C@@H](O)[C@H]1O [Compound 219] | 3980 | > 100000 | 7940 | 
Nc1nc(Cl)nc2c1ccn2[C@@H]1O[C@H](COc2ccc3cc(Cl)cnc3c2)[C@@H](O)[C@H]1O [Compound 4] | 63.1 | 200 | ~617 | 
Cc1ccnc2cc(OC[C@H]3O[C@@H](n4ccc5c(N)ncnc54)[C@H](O)[C@@H]3O)ccc12 [Compound 32] | 39.8 | 126 | 501 | 
Nc1ncnc2c1ccn2[C@@H]1O[C@H](COc2ccc3c(Cl)c(Cl)cnc3c2)[C@@H](O)[C@H]1O [Compound 35] | 398 | 794 | 398 | 
CNC(=O)c1cnc2cc(OC[C@H]3O[C@@H](n4ccc5c(N)ncnc54)[C@H](O)[C@@H]3O)ccc2c1 [Compound 189] | 316 | 1000 | 251 | 
Nc1ncnc2c1ccn2[C@@H]1O[C@H](COc2cccc3cccnc23)[C@@H](O)[C@H]1O [Compound 8] | 6310 | 12600 | > 10000 | 
CNc1ccc2ccc(CC[C@H]3O[C@@H](n4ccc5c(N)ncnc54)[C@H](O)[C@@H]3O)cc2n1 [Compound 137] | 1.58 | 20 | 6.31 | 
Cc1nc(N)c2ccn([C@@H]3O[C@H](CNc4ccc5cc(Br)cnc5c4)[C@@H](O)[C@H]3O)c2n1 [Compound 53] | 39.8 | 50.1 | 50.1 | 
Nc1ncnc2c1ccn2[C@@H]1C[C@H](CCc2ccc3ccc(NCC(F)F)nc3c2)[C@@H](O)[C@H]1O [Compound 75] | 0.251 | 0.501 | 1.58 | 
Nc1ncnc2c1ccn2[C@@H]1O[C@H](COc2cccc3cnccc23)[C@@H](O)[C@H]1O [Compound 6] | 3160 | 5010 | > 10000 | 
CC(Oc1ccc2cccnc2c1)[C@H]1O[C@@H](n2ccc3c(N)ncnc32)[C@H](O)[C@@H]1O (single isomer, unassigned) [Compound 68] | 2510 | > 100000 |  | ~5.14
Nc1ncnc2c1ccn2[C@@H]1O[C@H](COc2ccc3ccc(O)nc3c2)[C@@H](O)[C@H]1O [Compound 18] | 79.4 | 316 | ~10000 | 
CNc1ccc2ccc(CC[C@H]3O[C@@H](n4ccc5cncnc54)[C@H](O)[C@@H]3O)cc2n1 [Compound 169] | 10 | 63.1 | 50.1 | 
Cc1nc(N)c2ccn([C@@H]3O[C@H](COc4ccc5cc(Br)cnc5c4)[C@@H](O)[C@H]3O)c2n1 [Compound 43] | 79.4 | 200 | 316 | 
Nc1ncnc2c1ccn2[C@@H]1O[C@H](COc2ccc3cc(C4CCCC4)cnc3c2)[C@@H](O)[C@H]1O [Compound 109] | 126 | 200 | 1000 | 
